Key:
[1] = tested on: mice; assay: mFST alone and in combination with SSRI; assay type: in vivo, mouse; conditions: Example 12 10 mg/kg p.o.
[2] = tested on: male NIH-Swiss mice; assay: Forced-swim test in mice (mFST); assay type: in vivo, mouse; conditions: p.o.
[3] = citalopram experiment, citalopram 1 mg/kg i.p.
[4] = fluoxetine experiment, fluoxetine 10 mg/kg i.p.

## CN(C)CCCC1(c2ccc(F)cc2)OCc2cc(C#N)ccc21 (stereo not drawn) [Citalopram, citalopram, reference compound]
[1]; [3]
  Immobilization Time: 102 s
  Maximal Decrease (1 − compound/control) * 100%: 42.1%

## CC(C)OC(=O)OCOC(=O)[C@H]1[C@@H]2[C@H](O)[C@@H](CSc3ccc(F)c(Cl)c3)[C@@](N)(C(=O)OCOC(=O)OC(C)C)[C@H]12.Cl [Example 22, Bis({[(1-methylethoxy)carbonyl]oxy}methyl) (1S,2R,3S,4S,5R,6R)-2-amino-3-{[(3-chloro-4-fluorophenyl)sulfanyl]methyl}-4-hydroxybicyclo[3.1.0]hexane-2,6-dicarboxylate hydrochloride]
[2]; immobility, last 4 min of 6 min
  ED60 (mg/kg): 20.5 (p.o.) mg/kg
[2]; immobilization time
  Maximal Decrease (1 − compound/control) * 100%: 50.1%

## CNCCC(Oc1ccc(C(F)(F)F)cc1)c1ccccc1 (stereo not drawn) [Fluoxetine, fluoxetine, reference compound]
[1]; [4]
  Immobilization Time: 118 s
  Maximal Decrease (1 − compound/control) * 100%: 31.5%

Source: patent US8629169B2, “4-substituted-3-phenylsulfanylmethyl-bicyclo[3.1.0]hexane compounds as mGluR 2/3 antagonists” (Eli Lilly and Company, priority 2010, dated 2014)
